Test results published in US20170258924A1, “Ester of a Phospholipid With Conjugated Linoleic Acid for the Treatment of Psychiatric Disorders With Neuroinflammatory and Neurodegenerative Basis” (UNIVERSITA' DEGLI STUDI DI CAGLIARI, priority 2014, published 2017).

Key:
TNF alpha in microglia = TNF alpha in microglia in vitro; type: cell-based
Text: The PEA and OEA increase, since it sustains PPAR alpha activation, is crucial for the physiologic response to neuroinflammatory events, in addition to preserving the homeostasis of the dopaminergic system. In fact, CLA can reduce in vitro the levels of TNF alpha in both astrocytes and microglia.

rat brain slices = test: ex vivo incubation of rat brain slices, levels of PEA and OEA; type: cell-based; conditions: rat brain slices incubated ex vivo for 15, 30 or 60 min; FIG. 1
Text: The values, mean and DS, are expressed as molar % of the total fatty acids. Different letters indicate significant differences (p<0.05); the One-way ANOVA statistical analysis was used, with Tukey test for post-hoc analysis. Similar results were obtained by using pure (99%) c9,t11 isomer.
(§1) The methods employed for the analysis of the levels of conjugated linoleic acid, PEA and OEA in vivo and in vitro are described in detail in (Melis et al. 2001) and in (Piscitelli et al. 2011), respectively.
On the contrary, WY14643 (WY), a synthetic agonist of PPAR alpha used as a comparison since it is an inductor of PPAR alpha, increases the levels of PEA and OEA by about 3-4 times (FIG. 1B).

TNF alpha in astrocytes = test: TNF alpha in cultures of astrocytes after induced neuroinflammation with LPS; type: cell-based; conditions: treatment then LPS, oleic acid as control, p<0.05, FIG. 3
Text: (§2) Since astrocytes are involved in neuroinflammation, the action of CLA (80% c9,t11 isomer) was also verified in cultures of astrocytes after having induced neuroinflammation with LPS. Oleic acid was used as a control.

frontal cortex of mice = test: in vivo administration to mice, levels of OEA in the frontal cortex; conditions: acute administration 12 hours prior to sacrifice, FIG. 2
Text: The values, mean and DS, are expressed as pmoles/g tissue. Different letters indicate significant differences (p<0.05); the One-way ANOVA statistical analysis was used, with Tukey test for post-hoc analysis.
as §1, §2

Compound	levels of TNF alpha in microglia (TNF alpha in microglia)	increase of the levels of OEA (rat brain slices)	increase of the levels of PEA (rat brain slices)	TNF alpha in cultured astrocytes (TNF alpha in astrocytes)	TNF alpha in cultured astrocytes (TNF alpha in astrocytes; listed as CLA)	levels of OEA in the frontal cortex (frontal cortex of mice)
conjugated linoleic acid [CLA (80% c9,t11 isomer)]	reduce	about 5 times	about 5 times	significant decrease	reduce	significantly increases
Cc1cccc(Nc2cc(Cl)nc(SCC(=O)O)n2)c1C [WY14643, reference compound]		3-4 times	3-4 times			
